Several values for one entry are separate records, joined by “and”; a condition that tells them apart may be missing. Identical values can stand only once.
Legend:
[1] = system: some examined cell types; assay: Transfection expression and % cells transfected over the no peptide control; assay type: cell-based; settings: on some examined cell types
Experimental: (§1) Cells were plated to so that on the day of transfection the cells were 60-70% confluent in 96 well tissue culture plates. A DOMTA/DOPE Lipid solution (1:1 molar ratio) at 2 mg/mL in water were mixed with an equal volume of surface ligand peptides that had the nucleic acid binding moiety RRRRRRRRRRRR (SEQ ID NO: 109) covalently linked to the n terminus of each peptide during peptide synthesis. Peptides were at 2 mg/mL in water. The DOTMA/DOPE and the surface ligand peptide solution the transfection reagent was diluted 1 to 1 (v/v) in water. DOMTA/DOPE/PEPTIDE solutions were added to 0.1 mL of a plasmid DNA solution (EF1Alpha eGFP plasmid) at 5 μg/mL in OptiMEM. Lipofectamine 2000 was obtained from Life Technologies.
(§2) All solutions were at room temperature. A volume of 0.2 mL of a 5 μg/mL solution of DNA was aliquoted into each well of a non-tissue cultured treated plate. 4.0 μL of transfection reagents were added to DNA solutions respectively. The transfection reagent and DNA solution was mixed by pipetting up and down twice. Transfection complexes were formed for 10 minutes. After 10 minutes, 0.01 or 0.02 mL of the transfection complex was added to cells. HuVEC, HeLa, human adult keratinocytes, human primary adult fibroblast, and rat cortical neurons all respectively received 0.01 mL of the tramsfectopm complex. Human skeletal muscle cells, mouse C2C12 cells, Jurkat, and THP-1 cells received 0.02 mL of the transfection complex. Cells were incubated for 42 hours at 37° C. at 5% CO2. Plates were read on a fluorescent plate reader. Cells were also examined visually under a microscope to assess the extent of transfection (in terms of the percent of cells transfected) with a fluorescent microscope. Other modes of analysis, for example quantification with B-galactosidase or luciferase reports plasmids can also be used. […] Surface ligand that caused increase expression of GFP over the lipid DOTMA with no surface ligand were considered to enhance transfection or had higher % cells transfected were considered to enhance transfection. Peptides that gave greater than 2 fold enhancement are noted in bold and could be further optimized by adding different transfection enhancers or could be used with different cationic lipids or polymers.

[2] = system: NL-1 iPS Cells; assay: Transfection of NL-1 iPS cells with DOTMA/DOPE/peptide and eGFP plasmid, fluorescent plate reader; assay type: cell-based; settings: DOTMA/DOPE 1:1 plus peptide with RRRRRRRRRRRR (SEQ ID NO: 109) at n terminus; EF1Alpha eGFP plasmid; 42 hours
Experimental: as §1, §2

[3] = system: Human Fibroblast Cells; assay: Transfection of human fibroblast cells with DOTMA/DOPE/peptide and eGFP plasmid, fluorescent plate reader; assay type: cell-based; settings: DOTMA/DOPE 1:1 plus peptide with RRRRRRRRRRRR (SEQ ID NO: 109) at n terminus; EF1Alpha eGFP plasmid; 0.01 mL complex; 42 hours
Experimental: as §1, §2

[4] = system: C2C12 Cells; assay: Transfection of C2C12 cells with DOTMA/DOPE/peptide and eGFP plasmid, fluorescent plate reader; assay type: cell-based, mouse; settings: DOTMA/DOPE 1:1 plus peptide with RRRRRRRRRRRR (SEQ ID NO: 109) at n terminus; EF1Alpha eGFP plasmid; 0.02 mL complex; 42 hours
Experimental: as §1, §2

[5] = system: HuVec Cells; assay: Transfection of HuVec cells with DOTMA/DOPE/peptide and eGFP plasmid, fluorescent plate reader; assay type: cell-based; settings: DOTMA/DOPE 1:1 plus peptide with RRRRRRRRRRRR (SEQ ID NO: 109) at n terminus; EF1Alpha eGFP plasmid; 0.01 mL complex; 42 hours
Experimental: as §1, §2

[6] = system: HeLa Cells; assay: Transfection of HeLa cells with DOTMA/DOPE/peptide and eGFP plasmid, fluorescent plate reader; assay type: cell-based; settings: DOTMA/DOPE 1:1 plus peptide with RRRRRRRRRRRR (SEQ ID NO: 109) at n terminus; EF1Alpha eGFP plasmid; 0.01 mL complex; 42 hours
Experimental: as §1, §2

[7] = system: Jurkat Cells; assay: Transfection of Jurkat cells with DOTMA/DOPE/peptide and eGFP plasmid, fluorescent plate reader; assay type: cell-based; settings: DOTMA/DOPE 1:1 plus peptide with RRRRRRRRRRRR (SEQ ID NO: 109) at n terminus; EF1Alpha eGFP plasmid; 0.02 mL complex; 42 hours
Experimental: as §1, §2

[8] = system: HeLa Cells; assay: Transfection of HeLa cells with DOTMA/SEQ ID NO: 72/peptide compared with Lipofectamine 2000; assay type: cell-based; settings: fusogenic peptide 0.1 mg/mL
Experimental: as §1, §2
The fusogenic peptide was added to the DOMTA/peptide formulation to achieve a final concentration of 0.1 mg/mL to see if transfection reagents were further enhanced by the addition of a fusogenic peptide and could provide higher transfection efficiency into HeLa cells and expression than the commercially available Lipofectamine 2000.

[9] = 0.1 μL of DOTMA/SEQ ID NO: 72/Peptide in well of a 96 well plate
[10] = 0.2 μL of DOTMA/SEQ ID NO: 72/Peptide in well of a 96 well plate
[11] = 0.3 μL of DOTMA/SEQ ID NO: 72/Peptide in well of a 96 well plate
[12] = 0.4 μL of DOTMA/SEQ ID NO: 72/Peptide in well of a 96 well plate

| Substance | transfection expression and the % cells transfected over the no peptide control [1] | RF (Relative Fluorescence) of Transfection of NL-1 iPS Cells [2] | RF (Relative Fluorescence) of Transfection of Human Fibroblast Cells [3] | RF (Relative Fluorescence) of Transfection of C2C12 Cells [4] | RF (Relative Fluorescence) of Transfection of HuVec Cells [5] | RF (Relative Fluorescence) of Transfection of HeLa Cells [6] | RF (Relative Fluorescence) of Transfection of Jurkat Cells [7] | RF (Relative Fluorescence), DOTMA/SEQ ID NO: 72/Peptide, HeLa Cells [8, 9] | RF (Relative Fluorescence), DOTMA/SEQ ID NO: 72/Peptide, HeLa Cells [8, 10] | RF (Relative Fluorescence), DOTMA/SEQ ID NO: 72/Peptide, HeLa Cells [8, 11] | RF (Relative Fluorescence), DOTMA/SEQ ID NO: 72/Peptide, HeLa Cells [8, 12] |
| --- | --- | --- | --- | --- | --- | --- | --- | --- | --- | --- | --- |
| 393 (LGTIPG; Peptidic transfection agent) [compound 393] | increased |  |  |  |  |  |  |  |  |  |  |
| 352 (RIQNLLKITNLRIKFVK; Peptidic transfection agent) [compound 352] | increased | 11628 | 3059 | 3324 | 3130 | 32126 | 3150 |  |  |  |  |
| 354 (SINNTAVMQRLT; Peptidic transfection agent) [compound 354] | increased | 24043 | 4998 | 1912 | 19284 | 4403 | 16705 |  |  |  |  |
| 205 (AASIKVAVSADR; Peptidic transfection agent) [compound 205] | increased | 13140 | 8550 | 2102 | 8309 | 26368 | 2298 |  |  |  |  |
| 236 (KNNQKSEPLIGRKKT; Peptidic transfection agent) [compound 236] | increased | 43542 and 22256 | 3630 and 3000 |  | 14418 | 7202 and 5042 |  | 5993 | 8846 | 8492 | 7316 |
| 363 (LAGSCLARFSTM; Peptidic transfection agent) [compound 363] |  | 4189 | 3008 | 1080 | 1383 | 2590 | 2432 |  |  |  |  |
| 239 (KNSFMALYLSKGRLVFALG; Peptidic transfection agent) [compound 239] | increased | 4129 | 4084 | 10620 | 1404 | 2717 | 2343 |  |  |  |  |
| 224 (KPDVRSYTITG; Peptidic transfection agent) [compound 224] |  | 25209 | 5995 | 1469 | 15945 | 5559 | 13170 |  |  |  |  |
| 359 (KAFDITYVRLKF; Peptidic transfection agent) [compound 359] | increased | 5548 | 3206 | 5693 | 3024 | 3136 | 1880 |  |  |  |  |
| 501 (DLGTAGSCLRRFSTM; Peptidic transfection agent) [compound 501] | increased |  | 9473 | 5913 |  |  | 12350 | 23571 | 23993 | 20410 | 14749 |
| 235 (KARSFNVNQLLQD; Peptidic transfection agent) [compound 235] |  |  |  |  | 26940 |  |  |  |  |  |  |
| 383 (TAG; Peptidic transfection agent) [compound 383] |  | 21983 | 5896 | 1876 | 20267 | 8012 | 14910 |  |  |  |  |
| 371 (GPAGKDGEAGAQG; Peptidic transfection agent) [compound 371] |  | 17587 | 4584 | 983 | 10669 | 5180 | 6093 |  |  |  |  |
| 349 (RNIAEIIKDI; Peptidic transfection agent) [compound 349] | increased | 33103 | 8810 |  | 22907 | 4433 | 23167 |  |  |  |  |
| 234 (YEKPGSPPREVVPRPRPGV; Peptidic transfection agent) [compound 234] |  | 14410 | 4145 | 681 | 13956 | 3867 | 5441 |  |  |  |  |
| 335 (TVFSVDQDNMLE; Peptidic transfection agent) [compound 335] |  | 14424 | 8534 | 4689 | 6350 | 26954 | 4567 | 12866 | 12458 | 11547 | 9753 |
| 107 (RRRRRRRR; Peptidic transfection agent) [compound 107] |  | 1441 |  |  |  | 75 |  |  |  |  |  |
| 502 (RNIAEIIKDI; Peptidic transfection agent) [compound 502] |  |  |  | 2589 |  |  |  |  |  |  |  |

Source: patent US11085056B2, “Transfection complexes and methods of using the same” (MOLECULAR TRANSFER, INC., priority 2015, dated 2021)
